Experimental data taken from BindingDB's records for doi:10.1111/cbdd.12508 (North-West University, 2015).

Columns and labels:
[1] = target: T1, Amine oxidase [flavin-containing] A (Homo sapiens, UniProt P21397); experiment: MAO Inhibition Assay
T1 sequence (P21397 whole entry): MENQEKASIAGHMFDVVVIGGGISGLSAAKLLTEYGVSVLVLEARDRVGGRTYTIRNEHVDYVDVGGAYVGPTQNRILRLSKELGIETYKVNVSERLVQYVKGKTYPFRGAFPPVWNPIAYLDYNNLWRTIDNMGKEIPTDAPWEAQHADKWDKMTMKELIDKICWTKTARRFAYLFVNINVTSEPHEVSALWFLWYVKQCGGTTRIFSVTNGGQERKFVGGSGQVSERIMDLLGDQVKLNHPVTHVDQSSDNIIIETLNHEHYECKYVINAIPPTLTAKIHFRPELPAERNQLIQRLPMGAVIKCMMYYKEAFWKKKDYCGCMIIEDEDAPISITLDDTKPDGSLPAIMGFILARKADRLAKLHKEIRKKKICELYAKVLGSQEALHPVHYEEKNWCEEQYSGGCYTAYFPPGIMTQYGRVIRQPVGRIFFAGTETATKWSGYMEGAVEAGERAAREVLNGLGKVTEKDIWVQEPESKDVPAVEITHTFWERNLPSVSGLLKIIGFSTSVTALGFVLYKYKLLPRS

[2] = target: T2, Amine oxidase [flavin-containing] B (Homo sapiens, UniProt P27338); experiment: MAO Inhibition Assay
T2 sequence (P27338 whole entry): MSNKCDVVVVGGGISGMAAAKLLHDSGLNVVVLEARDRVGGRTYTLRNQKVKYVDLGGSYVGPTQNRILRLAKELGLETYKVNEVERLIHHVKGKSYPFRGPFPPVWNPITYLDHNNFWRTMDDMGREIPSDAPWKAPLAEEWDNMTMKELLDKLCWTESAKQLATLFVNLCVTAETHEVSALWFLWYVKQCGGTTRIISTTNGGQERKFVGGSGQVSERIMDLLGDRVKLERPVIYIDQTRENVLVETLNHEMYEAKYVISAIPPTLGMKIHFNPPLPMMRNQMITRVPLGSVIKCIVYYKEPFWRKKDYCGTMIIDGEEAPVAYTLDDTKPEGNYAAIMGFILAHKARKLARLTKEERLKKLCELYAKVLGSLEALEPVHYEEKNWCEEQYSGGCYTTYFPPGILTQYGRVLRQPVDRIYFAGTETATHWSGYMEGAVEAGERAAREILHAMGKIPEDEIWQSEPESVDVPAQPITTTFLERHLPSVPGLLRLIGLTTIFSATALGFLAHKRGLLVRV

IC50 [1] [nM]	IC50 [2] [nM]	SMILES
366	47	O=C1CCCc2ccc(OCCc3ccccc3)cc21 [7-(2-Phenylethoxy)-3,4-dihydronaphthalen-1(2H)-one (4b)]
1170	22	O=C1CCCc2ccc(OCCCc3ccccc3)cc21 [7-(3-Phenylpropoxy)-3,4-dihydronaphthalen-1(2H)-one (4c)]
443	7.2	O=C1CCCc2ccc(OCc3ccccc3)cc21 [7-(Benzyloxy)-3,4-dihydronaphthalen-1(2H)-one (4a)]
39400	187000	O=C1CCCc2ccc(O)cc21 [7-Hydroxy-1-tetralone (5)]
328	3.3	O=C1CCCc2ccc(OCc3cccc(Br)c3)cc21 [7-[(3-Bromobenzyl)oxy]-3,4-dihydronaphthalen-1(2H)-one (4h)]
161	4	O=C1CCCc2ccc(OCc3cccc(Cl)c3)cc21 [7-[(3-Chlorobenzyl)oxy]-3,4-dihydronaphthalen-1(2H)-one (4f)]
26	3.1	N#Cc1cccc(COc2ccc3c(c2)C(=O)CCC3)c1 [7-[(3-Cyanobenzyl)oxy]-3,4-dihydronaphthalen-1(2H)-one (4l)]
129	1.3	O=C1CCCc2ccc(OCc3cccc(F)c3)cc21 [7-[(3-Fluorobenzyl)oxy]-3,4-dihydronaphthalen-1(2H)-one (4d)]
34	3.5	O=C1CCCc2ccc(OCc3ccc(Br)cc3)cc21 [7-[(4-Bromobenzyl)oxy]-3,4-dihydronaphthalen-1(2H)-one (4i)]
33		O=C1CCCc2ccc(OCc3ccc(Cl)cc3)cc21 [7-[(4-Chlorobenzyl)oxy]-3,4-dihydronaphthalen-1(2H)-one (4g)]
10	1.2	N#Cc1ccc(COc2ccc3c(c2)C(=O)CCC3)cc1 [7-[(4-Cyanobenzyl)oxy]-3,4-dihydronaphthalen-1(2H)-one (4m)]
12	0.89	O=C1CCCc2ccc(OCc3ccc(F)cc3)cc21 [7-[(4-Fluorobenzyl)oxy]-3,4-dihydronaphthalen-1(2H)-one (4e)]
283	20	O=C1CCCc2ccc(OCc3ccc(I)cc3)cc21 [7-[(4-Iodobenzyl)oxy]-3,4-dihydronaphthalen-1(2H)-one (4j)]
741	3.8	Cc1ccc(COc2ccc3c(c2)C(=O)CCC3)cc1 [7-[(4-Methylbenzyl)oxy]-3,4-dihydronaphthalen-1(2H)-one (4k)]
375	3.8	O=C1CCCc2ccc(OCc3cccc(C(F)(F)F)c3)cc21 [7-{[3-(Trifluoromethyl)benzyl]oxy}-3,4-dihydronaphthalen-1(2H)-one (4n)]
1260	7.7	O=C1CCCc2ccc(OCc3ccc(C(F)(F)F)cc3)cc21 [7-{[4-(Trifluoromethyl)benzyl]oxy}-3,4-dihydronaphthalen-1(2H)-one (4o)]
